Results filed as inconclusive are left out. Active and inactive are the calls of the source. The rule behind the calls is not given here.
What follows are compounds tested on S. typhimurium/E. coli reverse mutation, colony counts (assay: Bacterial reverse mutation test (aka Ames test) summary data).
Method in brief: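 Revertant colony counts on plates, compared with untreated controls, after about two days of growth. Exposure with or without liver S9 (rat/hamster/mouse), dose range per strain, 20-min 37° C preincubation or direct plate incorporation. Strains: his⁻ Salmonella, trp⁻ E. coli WP2 uvrA pKM101.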
For `CNC(=S)N(C)C`, the outcome was “inactive; negative”.
For `CCCCCCCCCCCCOCC1CO1` (stereo not drawn), the outcome was “inactive; negative”.
For `CCCCCCCCCCCCCCC1CO1` (stereo not drawn), the outcome was “inactive; negative”.
For `CC=NO`, the outcome was “active; positive”.
For `CCN(C(=O)N(CC)c1ccccc1)c1ccccc1`, the outcome was “inactive; negative”.
`Cc1cc(O)c2c(c1)C(=O)c1cccc(O)c1C2=O` was tested, and the outcome was “active; weakly positive”.
For `CCCCCCC(=O)O`, the outcome was “inactive; negative”.
In the case of `COc1ccc(C)cc1N`, the outcome is reported as “active; positive”.
In the case of `C#C[C@]1(O)CC[C@H]2[C@@H]3CCc4cc(O)ccc4[C@H]3CC[C@@]21C`, the outcome is reported as “inactive; negative”.
With `CC(=O)CC(N)=O` the outcome was “active; positive”.
`O=C1c2cccc(O)c2C(=O)c2c(O)cccc21` was tested, and the outcome was “active; weakly positive”.
For `O=CC=Cc1ccco1`, the outcome was “inactive; negative”.
For `Clc1ccc(Cl)c(Cl)c1Cl`, the outcome was “inactive; negative”.
In the case of `Cc1cc(N=Nc2c(O)ccc3ccccc23)c(S(=O)(=O)O)cc1Cl`, the outcome is reported as “active; weakly positive”.
`C=Cc1ccccc1` was tested, and the outcome was “inactive; negative”.
In the case of `C=CC`, the outcome is reported as “active; positive”.
In the case of `O=[N+]([O-])c1ccc(Nc2ccc(O)cc2)c([N+](=O)[O-])c1`, the outcome is reported as “active; positive”.
For `C1CC2OC2CC1C1CO1` (stereo not drawn), the outcome was “active; positive”.
With `CN1C(CSCC(F)(F)F)Nc2cc(Cl)c(S(N)(=O)=O)cc2S1(=O)=O` (stereo not drawn) the outcome was “inactive; negative”.
In the case of `Nc1ccc([N+](=O)[O-])c(N)c1`, the outcome is reported as “active; positive”.
With `c1ccc(C2CO2)cc1` (stereo not drawn) the outcome was “active; positive”.
In the case of `O=C(O)C(F)(F)C(F)(F)C(F)(F)C(F)(F)C(F)(F)C(F)(F)C(F)(F)C(F)(F)C(F)(F)F`, the outcome is reported as “inactive; negative”.
For `C=CCc1ccc2c(c1)OCO2`, the outcome was “inactive; negative”.
`CN(C)CCN(Cc1ccccc1)c1ccccc1` was tested, and the outcome was “inactive; negative”.
`CC1OC(C)OC(C)O1` (stereo not drawn) was tested, and the outcome was “active; positive”.
With `CCCCCCCCCCCCCC(=O)O` the outcome was “inactive; negative”.
`CC(=O)Nc1cccc(O)c1` was tested, and the outcome was “inactive; negative”.
For `CCCCC`, the outcome was “inactive; negative”.
